Laboratory results: ChEMBL document CHEMBL3112413, “Novel coumarin-dihydropyrazole thio-ethanone derivatives: design, synthesis and anticancer activity” (Eur J Med Chem, 2014)
Active and inactive are the calls of the source. The calls are words filed in the database; no cut-off is given here.

Tests used:
[1] = molecular target: Telomerase reverse transcriptase (Homo sapiens, UniProt O14746); experiment: Inhibition of telomerase in human MGC803 cell extracts after 24 hrs by TRAP-PCR-ELISA; parameters: species or system MGC-803
MGC-803 [2] = experiment: Cytotoxicity against human MGC803 cells after 48 hrs by MTT assay; assay type: functional, cell-based; conditions: MGC-803, 48 h
HepG2 = experiment: Cytotoxicity against human HepG2 cells after 48 hrs by MTT assay; assay type: functional, cell-based; conditions: HepG2, 48 h
[3] = molecular target: DNA polymerase I, thermostable (Thermus aquaticus) (UniProt P19821); experiment: Inhibition of Thermus aquaticus Taq polymerase at IC50 for telomerase inhibition after 15 mins using ethidium bromide staining by 2% agarose gel electrophoresis analysis
Bcap37 = experiment: Cytotoxicity against human Bcap37 cells after 48 hrs by MTT assay; assay type: functional, cell-based; conditions: Bcap37, 48 h
[4] = Cytotoxicity against human SGC7901 cells after 48 hrs by MTT assay; assay type: functional, cell-based; conditions: SGC-7901, 48 h
MGC-803 [5] = experiment: Cell cycle arrest in human MGC803 cells assessed as accumulation at S phase at 25 uM after 48 hrs using propidium iodide staining after 48 hrs by flow cytometer relative to control; assay type: functional
MGC-803 [6] = experiment: Cell cycle arrest in human MGC803 cells assessed as accumulation at G2/M phase at 25 uM after 48 hrs using propidium iodide staining after 48 hrs by flow cytometer relative to control; assay type: functional
MGC-803 [7] = experiment: Cell cycle arrest in human MGC803 cells assessed as accumulation at G0/G1 phase at 25 uM after 48 hrs using propidium iodide staining after 48 hrs by flow cytometer relative to control; assay type: functional
MGC-803 [8] = experiment: Cell cycle arrest in human MGC803 cells at 0.92 uM after 48 hrs using propidium iodide staining after 48 hrs by flow cytometer relative to control; assay type: functional
MGC-803 [9] = experiment: Cell cycle arrest in human MGC803 cells assessed as accumulation at S phase at […] uM after 48 hrs using propidium iodide staining after 48 hrs by flow cytometer relative to control; assay type: functional
MGC-803 [10] = experiment: Cell cycle arrest in human MGC803 cells assessed as accumulation at G0/G1 phase at […] uM after 48 hrs using propidium iodide staining after 48 hrs by flow cytometer relative to control; assay type: functional
MGC-803 [11] = experiment: Cell cycle arrest in human MGC803 cells assessed as accumulation at G2/M phase at […] uM after 48 hrs using propidium iodide staining after 48 hrs by flow cytometer relative to control; assay type: functional

Telomerase reverse transcriptase, sequence (O14746 whole entry): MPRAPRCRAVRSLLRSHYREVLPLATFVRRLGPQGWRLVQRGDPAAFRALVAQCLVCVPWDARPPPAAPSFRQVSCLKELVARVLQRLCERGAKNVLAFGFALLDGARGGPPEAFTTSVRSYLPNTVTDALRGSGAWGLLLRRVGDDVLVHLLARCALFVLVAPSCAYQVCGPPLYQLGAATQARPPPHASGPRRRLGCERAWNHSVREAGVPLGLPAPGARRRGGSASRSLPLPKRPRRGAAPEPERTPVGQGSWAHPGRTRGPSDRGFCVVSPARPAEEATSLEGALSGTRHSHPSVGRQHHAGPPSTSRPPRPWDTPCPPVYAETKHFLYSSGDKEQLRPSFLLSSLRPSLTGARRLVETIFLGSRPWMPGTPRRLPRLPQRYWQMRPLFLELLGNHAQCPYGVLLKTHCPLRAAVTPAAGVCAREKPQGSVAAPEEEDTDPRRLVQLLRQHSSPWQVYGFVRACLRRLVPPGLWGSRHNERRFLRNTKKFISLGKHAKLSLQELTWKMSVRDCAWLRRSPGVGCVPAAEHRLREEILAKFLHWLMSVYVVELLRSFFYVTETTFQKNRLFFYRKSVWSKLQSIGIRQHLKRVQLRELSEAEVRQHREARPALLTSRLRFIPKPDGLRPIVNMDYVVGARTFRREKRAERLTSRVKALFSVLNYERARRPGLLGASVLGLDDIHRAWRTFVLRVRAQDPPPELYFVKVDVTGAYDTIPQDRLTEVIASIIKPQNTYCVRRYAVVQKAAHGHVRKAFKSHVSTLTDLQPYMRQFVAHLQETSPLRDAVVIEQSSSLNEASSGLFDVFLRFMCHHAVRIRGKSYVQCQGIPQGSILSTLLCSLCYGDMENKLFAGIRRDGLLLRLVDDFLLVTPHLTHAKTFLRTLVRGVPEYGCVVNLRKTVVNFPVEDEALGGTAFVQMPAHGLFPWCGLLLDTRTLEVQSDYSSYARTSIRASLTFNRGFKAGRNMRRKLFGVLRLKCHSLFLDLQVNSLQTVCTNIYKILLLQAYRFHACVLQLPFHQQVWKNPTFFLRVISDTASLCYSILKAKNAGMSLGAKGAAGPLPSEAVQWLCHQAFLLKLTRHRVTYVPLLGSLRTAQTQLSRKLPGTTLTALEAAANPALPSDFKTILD
DNA polymerase I, thermostable (Thermus aquaticus), sequence (P19821 whole entry): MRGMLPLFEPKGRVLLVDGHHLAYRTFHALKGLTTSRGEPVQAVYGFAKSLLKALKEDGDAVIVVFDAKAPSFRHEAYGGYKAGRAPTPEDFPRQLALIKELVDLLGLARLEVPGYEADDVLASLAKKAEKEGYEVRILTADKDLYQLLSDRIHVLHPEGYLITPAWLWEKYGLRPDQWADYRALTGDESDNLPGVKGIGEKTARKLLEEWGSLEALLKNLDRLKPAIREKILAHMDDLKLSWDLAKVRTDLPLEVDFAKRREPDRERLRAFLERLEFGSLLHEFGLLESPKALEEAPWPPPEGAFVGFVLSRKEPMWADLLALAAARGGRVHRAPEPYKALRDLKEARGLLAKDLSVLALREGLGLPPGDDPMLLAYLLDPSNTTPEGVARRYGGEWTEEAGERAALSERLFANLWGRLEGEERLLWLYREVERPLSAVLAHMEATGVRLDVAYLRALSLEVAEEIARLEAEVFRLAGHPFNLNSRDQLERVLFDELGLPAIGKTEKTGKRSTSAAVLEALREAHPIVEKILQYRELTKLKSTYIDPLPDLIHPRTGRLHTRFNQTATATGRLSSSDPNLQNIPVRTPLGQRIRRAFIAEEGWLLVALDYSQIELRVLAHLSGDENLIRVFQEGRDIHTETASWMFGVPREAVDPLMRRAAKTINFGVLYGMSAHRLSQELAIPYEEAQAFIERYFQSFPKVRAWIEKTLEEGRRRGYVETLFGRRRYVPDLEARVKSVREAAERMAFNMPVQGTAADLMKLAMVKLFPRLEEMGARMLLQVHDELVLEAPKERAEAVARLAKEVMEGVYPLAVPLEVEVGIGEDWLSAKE

SMILES	IC50 [1] [µM]	IC50 (MGC-803 [2]) [µM]	IC50 (HepG2) [µM]	IC50 (Bcap37) [µM]	IC50 [4] [µM]	also measured
C/C(=C\C(=O)Nc1ccccc1C(=O)O)c1ccc2ccccc2c1	0.28					
O=C(CSc1ccc(Br)cc1)N1N=C(c2cc3ccccc3oc2=O)C[C@@H]1c1ccc(C(F)(F)F)cc1	25.1	10.8	12.7	7.99	12.1	inhibition [3]: inactive
CC[n+]1c(-c2ccccc2)c2cc(N)ccc2c2ccc(N)cc21 [HOMIDIUM BROMIDE]	2.1					
O=C(CSc1ccccc1)N1N=C(c2cc3ccccc3oc2=O)C[C@@H]1c1ccccc1		22.8	16.3	14.8	20.3	
CCCCSCC(=O)N1N=C(c2cc3ccccc3oc2=O)C[C@@H]1c1ccccc1		12.8	6.64	9.7	7.3	
COC(=O)CSCC(=O)N1N=C(C)C[C@@H]1c1cc(Br)cc(Br)c1O	1.19	2.27	2.95	3.7	3.3	inhibition [3]: inactive
O=c1cc(N2CCOCC2)oc2c(-c3ccccc3)cccc12 [LY-294002]						Activity (MGC-803 [5]): 27.1%; Activity (MGC-803 [6]): 22.4%; Activity (MGC-803 [7]): 50.5%
O=C(CSc1ncccn1)N1N=C(c2cc3ccccc3oc2=O)C[C@@H]1c1ccc(C(F)(F)F)cc1		2.89	4.75	3.77	4.39	
CC1=NN(C(=O)CSc2ccccc2)[C@@H](c2cc(Br)cc(Br)c2O)C1		12.7	10.3	13.1	24.1	
O=C(CSCc1ccco1)N1N=C(c2cc3ccccc3oc2=O)C[C@@H]1c1ccc(C(F)(F)F)cc1		15.2	11.2	12	9.74	
CC1=NN(C(=O)CSc2nc3ccccc3s2)[C@@H](c2cc(Br)cc(Br)c2O)C1	4.65	7.8	8.7	9.7	12.3	
CC1=NN(C(=O)CSc2ccccn2)[C@@H](c2cc(Br)cc(Br)c2O)C1		12.3	24.7	16.7	10.3	
O=C(CSCc1ccco1)N1N=C(c2cc3ccccc3oc2=O)C[C@@H]1c1ccccc1C(F)(F)F		15.7	18	10.3	10.2	
O=C(CSc1ccc([N+](=O)[O-])cc1)N1N=C(c2cc3ccccc3oc2=O)C[C@@H]1c1ccccc1C(F)(F)F		7.58	7.7	10.8	9.77	
CCCCSCC(=O)N1N=C(c2cc3ccccc3oc2=O)C[C@@H]1c1ccc(C(F)(F)F)cc1	0.92	2.35	8.68	3.55	2.91	Activity (MGC-803 [8]): 66%; inhibition [3]: inactive
CC1=NN(C(=O)CSc2ccc(Br)cc2)[C@@H](c2cc(Br)cc(Br)c2O)C1		12.8	6.87	3.2	8.21	
O=C(CSc1ccc([N+](=O)[O-])cc1)N1N=C(c2cc3ccccc3oc2=O)C[C@@H]1c1ccc(C(F)(F)F)cc1		10.2	7.76	16.5	8.51	
O=C(CSc1ncccn1)N1N=C(c2cc3ccccc3oc2=O)C[C@@H]1c1ccccc1C(F)(F)F	8.89	4	6.54	4.09	4.97	inhibition [3]: inactive
CCCSCC(=O)N1N=C(C)C[C@@H]1c1cc(Br)cc(Br)c1O	1.04	2.97	4	3.24	2.3	Activity (MGC-803 [9]): 30.1%; Activity (MGC-803 [10]): 47.2%; Activity (MGC-803 [11]): 25.2%; inhibition [3]: inactive
O=c1[nH]cc(F)c(=O)[nH]1 [FLUOROURACIL]		3.68	4.35	5.58	7.37	
O=C(CSc1ccc(Br)cc1)N1N=C(c2cc3ccccc3oc2=O)C[C@@H]1c1ccccc1C(F)(F)F		21.3	17.9	10.3	14.7	
CCCCSCC(=O)N1N=C(c2cc3ccccc3oc2=O)C[C@@H]1c1ccccc1C(F)(F)F	2	3.14	5.01	9.73	4.42	inhibition [3]: inactive
O=C(CSc1ccc(Br)cc1)N1N=C(c2cc3ccccc3oc2=O)C[C@@H]1c1ccccc1		16.8	14.5	13	14.3	
